Legend:
sedge, umbrella = experiment: Test B flooded paddy test; assay type: in vivo, Cyperus difformis; details: 500 g ai/ha, Flood; scale of 0 to 100 where 0 is no effect and 100 is complete control
Outline: (§1)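 Treatment was made at the 2-leaf stage by dosing the standing floodwater, kept 3 cm above soil level for the whole test. Greenhouse exposure lasted 13 to 15 days. Response is a visual percent rating relative to controls, where a dash indicates no test result.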

galium = experiment: Test A postemergence herbicide test; assay type: in vivo, Galium aparine
Outline: (§2)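 Blackgrass and galium grown in pots of loam soil–sand blend, treated postemergence at 2–10 cm height, one- to two-leaf stage. Plants kept in greenhouse ~10 days, then visually rated for injury against untreated controls on a 0–100 scale (0 no effect, 100 complete control).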

blackgrass = experiment: Test A postemergence herbicide test; assay type: in vivo, Alopecurus myosuroides
Outline: as §2

corn = experiment: Test A pre-/postemergence herbicide test; assay type: in vivo, Zea mays; details: Postemergence
Outline: (§3)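 Visual 0–100 ratings (100 = complete control) made about 10 days after treatment, greenhouse-held plants compared with untreated controls. Treatments: postemergence sprays on one- to two-leaf plants (2–10 cm tall) and preemergence directed soil sprays after planting in loam–sand, chemicals formulated in non-phytotoxic solvent containing surfactant.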

wheat = experiment: Test A pre-/postemergence herbicide test; assay type: in vivo, Triticum aestivum; details: Postemergence
Outline: as §3

ragweed = experiment: Test A pre-/postemergence herbicide test; assay type: in vivo, Ambrosia elatior
Outline: as §3

ryegrass, Italian = experiment: Test A pre-/postemergence herbicide test; assay type: in vivo, Lolium multiflorum
Outline: as §3

ducksalad = experiment: Test B flooded paddy test; assay type: in vivo, Heteranthera limosa; details: 500 g ai/ha, Flood; scale of 0 to 100 where 0 is no effect and 100 is complete control
Outline: as §1

pigweed = experiment: Test A pre-/postemergence herbicide test; assay type: in vivo, Amaranthus retroflexus
Outline: as §3

rice = experiment: Test B flooded paddy test; assay type: in vivo, Oryza sativa; details: 500 g ai/ha, Flood; scale of 0 to 100 where 0 is no effect and 100 is complete control
Outline: as §1

giant foxtail = experiment: Test A pre-/postemergence herbicide test; assay type: in vivo, Setaria faberii
Outline: as §3

kochia = experiment: Test A pre-/postemergence herbicide test; assay type: in vivo, Kochia scoparia
Outline: as §3

barnyardgrass [1] = experiment: Test A pre-/postemergence herbicide test; assay type: in vivo, Echinochloa crus-galli
Outline: as §3

barnyardgrass [2] = experiment: Test B flooded paddy test; assay type: in vivo, Echinochloa crus-galli; details: 500 g ai/ha, Flood; scale of 0 to 100 where 0 is no effect and 100 is complete control
Outline: as §1

[3] = 125 g ai/ha, 0 to 100 scale, 0 no effect, 100 complete control
[4] = 125 g ai/ha, visual rating, 0 to 100 scale, 0 no effect, 100 complete control, approximately 10 days, preemergence
[5] = Postemergence, 125 g ai/ha, 0 to 100 scale, 0 no effect, 100 complete control
[6] = preemergence, 500 g ai/ha, 0 to 100 scale
[7] = 125 g ai/ha, visual rating on 0 to 100 scale (0 no effect, 100 complete control), approx. 10 days
[8] = 500 g ai/ha, 0 to 100 scale (0 no effect, 100 complete control)
[9] = Postemergence, 125 g ai/ha, visual rating on 0 to 100 scale (0 no effect, 100 complete control), approx. 10 days
[10] = Postemergence, 500 g ai/ha, 0 to 100 scale (0 no effect, 100 complete control)
[11] = Preemergence, 125 g ai/ha, 0 to 100 scale where 0 is no effect and 100 is complete control
[12] = Preemergence, 500 g ai/ha, visual rating on 0 to 100 scale (0 no effect, 100 complete control)

## Cc1ccc(C2CNC(=O)C2C(=O)Nc2ccccc2F)cc1 (racemic) [Compound 149]
sedge, umbrella
  Plant response rating, Sedge, Umbrella: 0
galium; [3]
  Plant response rating, Galium: 50
galium; 500 g ai/ha
  Galium plant response rating (0 to 100 scale, 0 is no effect, 100 is complete control): 60
blackgrass; [3]
  Plant response rating, Blackgrass: 30
blackgrass; 500 g ai/ha
  Blackgrass plant response rating (0 to 100 scale, 0 is no effect, 100 is complete control): 40
corn; [3]
  Plant response rating, Corn: 10
corn; 500 g ai/ha
  Corn plant response rating (0 to 100 scale, 0 is no effect, 100 is complete control): 70
wheat; [3]
  Plant response rating, Wheat: 0
wheat; 500 g ai/ha
  Wheat plant response rating (0 to 100 scale, 0 is no effect, 100 is complete control): 20
ragweed; [4]
  Plant response rating, Ragweed: 60
ragweed; [5]
  Plant response rating, Ragweed: 30
ragweed; Postemergence, 500 g ai/ha
  Ragweed plant response rating (0 to 100 scale, 0 is no effect, 100 is complete control): 40
ragweed; [6]
  Plant response rating, Ragweed: 80
ryegrass, Italian; [4]
  Plant response rating, Ryegrass, Italian: 20
ryegrass, Italian; [5]
  Plant response rating, Ryegrass, Italian: 10
ryegrass, Italian; Postemergence, 500 g ai/ha
  Ryegrass, Italian plant response rating (0 to 100 scale, 0 is no effect, 100 is complete control): 50
ryegrass, Italian; [6]
  Plant response rating, Ryegrass, Italian: 70
ducksalad
  Plant response rating, Ducksalad: 100
pigweed; [4]
  Plant response rating, Pigweed: 0
pigweed; [5]
  Plant response rating, Pigweed: 0
pigweed; Postemergence, 500 g ai/ha
  Pigweed plant response rating (0 to 100 scale, 0 is no effect, 100 is complete control): 0
pigweed; [6]
  Plant response rating, Pigweed: 0
rice
  Plant response rating, Rice: 0
Giant foxtail; [4]
  Plant response rating, Foxtail, Giant: 70
Giant foxtail; [5]
  Plant response rating, Foxtail, Giant: 40
Giant foxtail; Postemergence, 500 g ai/ha
  Foxtail, Giant plant response rating (0 to 100 scale, 0 is no effect, 100 is complete control): 70
Giant foxtail; [6]
  Plant response rating, Foxtail, Giant: 90
kochia; [4]
  Plant response rating, Kochia: 10
kochia; [5]
  Plant response rating, Kochia: 50
kochia; Postemergence, 500 g ai/ha
  Kochia plant response rating (0 to 100 scale, 0 is no effect, 100 is complete control): 60
kochia; [6]
  Plant response rating, Kochia: 70
Barnyardgrass [1]; [4]
  Plant response rating, Barnyardgrass: 90
Barnyardgrass [1]; [5]
  Plant response rating, Barnyardgrass: 70
Barnyardgrass [1]; Postemergence, 500 g ai/ha
  Barnyardgrass plant response rating (0 to 100 scale, 0 is no effect, 100 is complete control): 80
Barnyardgrass [1]; preemergence, 500 g ai/ha, 0 to 100 scale (0 no effect, 100 complete control)
  Plant response rating, Barnyardgrass: 90
Barnyardgrass [2]
  Plant response rating, Barnyardgrass: 70

## O=C1NCC(c2cccc(Oc3ccccc3)c2)C1C(=O)Nc1ccccc1Cl (stereo not drawn) [Compound 334]
sedge, umbrella
  Plant response rating, Sedge, Umbrella: 0
galium; [7]
  Plant response rating, Galium: 0
galium; [8]
  Plant response rating, Galium: 0
blackgrass; [7]
  Plant response rating, Blackgrass: 0
blackgrass; [8]
  Plant response rating, Blackgrass: 0
corn; [7]
  Plant response rating, Corn: 0
corn; [8]
  Plant response rating, Corn: 0
wheat; [7]
  Plant response rating, Wheat: 0
wheat; [8]
  Plant response rating, Wheat: 0
ragweed; [9]
  Plant response rating, Ragweed: 0
ragweed; [10]
  Plant response rating, Ragweed: 0
ragweed; [11]
  Plant response rating, Ragweed: 0
ragweed; [12]
  Ragweed plant response rating: 0
ryegrass, Italian; [9]
  Plant response rating, Ryegrass, Italian: 0
ryegrass, Italian; [10]
  Plant response rating, Ryegrass, Italian: 0
ryegrass, Italian; [11]
  Plant response rating, Ryegrass, Italian: 0
ryegrass, Italian; [12]
  Ryegrass, Italian plant response rating: 0
ducksalad
  Plant response rating, Ducksalad: 40
pigweed; [9]
  Plant response rating, Pigweed: 0
pigweed; [10]
  Plant response rating, Pigweed: 0
pigweed; [11]
  Plant response rating, Pigweed: 0
pigweed; [12]
  Pigweed plant response rating: 0
rice
  Plant response rating, Rice: 0
Giant foxtail; [9]
  Plant response rating, Foxtail, Giant: 0
Giant foxtail; [10]
  Plant response rating, Foxtail, Giant: 10
Giant foxtail; [11]
  Plant response rating, Foxtail, Giant: 0
Giant foxtail; [12]
  Foxtail, Giant plant response rating: 50
kochia; [9]
  Plant response rating, Kochia: 0
kochia; [10]
  Plant response rating, Kochia: 0
kochia; [11]
  Plant response rating, Kochia: 0
kochia; [12]
  Kochia plant response rating: 0
Barnyardgrass [1]; [9]
  Plant response rating, Barnyardgrass: 0
Barnyardgrass [1]; [10]
  Plant response rating, Barnyardgrass: 0
Barnyardgrass [1]; [11]
  Plant response rating, Barnyardgrass: 0
Barnyardgrass [1]; [12]
  Barnyardgrass plant response rating: 0
Barnyardgrass [2]
  Plant response rating, Barnyardgrass: 30
